# Where two headings read alike, the source gives them in different places.
# System: Sprague-Dawley rats
# Assay: Retinoid analyses in liver, serum and kidney
# Format: in vivo, Rattus norvegicus
# Design: key to Kidney Retinyl esters, Dose response / Liver All-trans RA, Dose response / Kidney All-trans RA, Dose response / Serum Retinol, Dose response: D: significant dose response (for results, see Table 2); T: significant trend
# Details: for Emax: Rattus norvegicus; for Kidney All-trans RA / Kidney Retinol / Kidney Retinyl esters / Liver 9-cis-4o-13,14-dh RA / Liver All-trans RA / Liver Retinol / Liver Retinyl esters: group mean, N=5
# Procedure: Retinoids in liver, serum, and kidney were analyzed according to Schmidt et al.. The polar retinoids 9-cis-retinoic acid (9-cis-RA), 13-cis-retinoic acid (13-cis-RA), 13-cis-4-oxo-retinoic acid (13-cis-4-o-RA), 9-cis-4-oxo-13,14-dihydro-retinoic acid (9-cis-4-o-13,14-dh-RA), all-trans retinoic acid (all-trans RA) and the apolar retinoids retinol and retinyl palmitate were extracted by a single liquid-extraction, separated from each other via solid-phase extraction using an aminopropyl phase, and then injected onto two different HPLC systems that were coupled with UV detection. […] The limits of detection (LOD) for all-trans RA and 9c-4o-13,14-dh-RA were 0.7 and 1.0 pmol/g tissue, and 0.3 and 0.6 pmol/ml serum, respectively. Retinol and retinyl palmitate were separated on a J'sphere ODS-H80 (4.6×150 mm, 4 µm particle size) obtained from YMC (Schermbeck, Germany), and were detected at 325 nm. The LOD for retinol and retinyl palmitate were 5.6 and 5.5 pmol/g tissue, and 4.2 and 4.2 pmol/ml serum, respectively.
# Data were also analyzed using the BMD method, which is based on dose-response modeling of the full data set using a nested family of exponential and Hill models. The analyses were done on data of males and females combined, using sex as a covariate. […] In that case, different Critical Effect Doses (CEDs) and CEDs at the lowest bound of the confidence interval (CED-L) were generated for each sex. If no difference between sexes is detected, a CED and CED-Ls for the combined data is generated. However, this was also done if the curve fits are close, and separate analyses for males and females were then performed manually. CEDs and CED-Ls were calculated at the predefined Critical Effect Size (CES) of 5% (EFSA standard) or 10%.
# [1] = females, total dose 0-1700 mg/kg bw
# [2] = females, total dose 10 mg/kg bw
# [3] = females, total dose 30 mg/kg bw
# [4] = females, total dose 100 mg/kg bw
# [5] = females, total dose 300 mg/kg bw
# [6] = females, total dose 1000 mg/kg bw
# [7] = females, total dose 1700 mg/kg bw
smiles,measurement,setting,value
"Clc1cc(Cl)c(-c2cc(Cl)c(Cl)c(Cl)c2Cl)cc1Cl [PCB 180, 2,2′,3′,4,4′,5,5′-heptachlorobiphenyl]",Emax,"F, model E4, controls vs high dose according to the fitted model, read-out: Maximum response, Liver 9c-4o-13,14-dh-RA amount",-70.3%
same,Emax,"F, model E4, controls vs high dose according to the fitted model, read-out: Maximum response, Liver 9c-4o-13,14-dh-RA concentration",-78.2%
same,Emax,"females, controls vs high dose, fitted model, read-out: Kidney all-trans RA amount, Maximum response",16.5%
same,Emax,"females, controls vs high dose, fitted model, read-out: Kidney all-trans RA concentration, Maximum response",19.9%
same,Emax,"females, controls vs high dose, fitted model, read-out: Kidney retinol amount, Maximum response",26.9%
same,Emax,"females, controls vs high dose, fitted model, read-out: Kidney retinol concentration, Maximum response",27.8%
same,Emax,"females, controls vs high dose, fitted model, read-out: Liver 9c-4o-13,14-dh-RA amount, Maximum response",-70.3%
same,Emax,"females, controls vs high dose, fitted model, read-out: Liver 9c-4o-13,14-dh-RA conc., Maximum response",-78.2%
same,Emax,"females, controls vs high dose, fitted model, read-out: Liver retinol concentration, Maximum response",-42.9%
same,Emax,"females, controls vs high dose, fitted model, read-out: Liver retinyl esters amount, Maximum response",-29%
same,Emax,"females, controls vs high dose, fitted model, read-out: Liver retinyl esters concentration, Maximum response",-50.9%
same,Emax,"females, controls vs high dose, fitted model, read-out: Serum retinol concentration, Maximum response",23%
same,Emax,"males, controls vs high dose, fitted model, read-out: Kidney retinol amount, Maximum response",50.4%
same,Emax,"males, controls vs high dose, fitted model, read-out: Kidney retinol concentration, Maximum response",52%
same,Emax,"males, controls vs high dose, fitted model, read-out: Kidney retinyl esters amount, Maximum response",260%
same,Emax,"males, controls vs high dose, fitted model, read-out: Kidney retinyl esters concentration, Maximum response",254%
same,Emax,"males, controls vs high dose, fitted model, read-out: Liver all-trans RA amount, Maximum response",93%
same,Emax,"males, controls vs high dose, fitted model, read-out: Liver all-trans RA concentration, Maximum response",21%
same,Emax,"males, controls vs high dose, fitted model, read-out: Liver retinol amount, Maximum response",-18.1%
same,Emax,"males, controls vs high dose, fitted model, read-out: Liver retinol concentration, Maximum response",-46.8%
same,Emax,"males, controls vs high dose, fitted model, read-out: Liver retinyl esters amount, Maximum response",-45.2%
same,Emax,"males, controls vs high dose, fitted model, read-out: Liver retinyl esters concentration, Maximum response",-62.8%
same,Emax,"model E2, controls vs high dose according to the fitted model, read-out: Maximum response, Kidney retinol amount",49%
same,Emax,"model E2, controls vs high dose according to the fitted model, read-out: Maximum response, Kidney retinol concentration",51.9%
same,Emax,"model E2, controls vs high dose according to the fitted model, read-out: Maximum response, Liver all-trans RA amount",92.7%
same,Emax,"model E2, controls vs high dose according to the fitted model, read-out: Maximum response, Liver all-trans RA concentration",20.7%
same,Emax,"model E2, controls vs high dose according to the fitted model, read-out: Maximum response, Liver retinol amount",-18.5%
same,Emax,"model E2, controls vs high dose according to the fitted model, read-out: Maximum response, Liver retinyl esters amount",-45.7%
same,Emax,"model E4, controls vs high dose according to the fitted model, read-out: Maximum response, Kidney retinyl esters amount",253%
same,Emax,"model E4, controls vs high dose according to the fitted model, read-out: Maximum response, Kidney retinyl esters concentration",256%
same,Emax,"model E4, controls vs high dose according to the fitted model, read-out: Maximum response, Liver retinol concentration",-44.6%
same,Emax,"model E4, controls vs high dose according to the fitted model, read-out: Maximum response, Liver retinyl esters concentration",-63.4%
same,"Liver 9c-4o-13,14-dh-RA concentration, max. decrease",females,78%
same,"Liver retinol concentration, max. decrease",females,43%
same,"Dose response, Kidney All-trans RA",[1],"D, T"
same,"Dose response, Kidney Retinol",[1],"D, T"
same,"Dose response, Liver 9-cis-4o-13,14-dh RA",[1],"D, T"
same,"Dose response, Liver Retinyl esters",[1],"D, T"
same,"Kidney All-trans RA, Dose response",[1],D
same,"Kidney Retinol, Dose response",[1],"D, T"
same,"Liver 9-cis-4o-13,14-dh-RA, Dose response",[1],"D, T"
same,"Liver Retinol, Dose response",[1],"D, T"
same,"Liver Retinyl esters, Dose response",[1],"D, T"
same,"Serum Retinol, Dose response",[1],D
same,Kidney All-trans RA,"females, total dose 3 mg/kg bw",19.8 pmol
same,Kidney Retinol,"females, total dose 3 mg/kg bw",8.72 nmol
same,Kidney Retinyl esters,"females, total dose 3 mg/kg bw",0.77 nmol
same,"Liver 9-cis-4o-13,14-dh RA","females, total dose 3 mg/kg bw",887 pmol
same,Liver All-trans RA,"females, total dose 3 mg/kg bw",267 pmol
same,Liver Retinol,"females, total dose 3 mg/kg bw",0.26 µmol
same,Liver Retinyl esters,"females, total dose 3 mg/kg bw",11.1 µmol
same,Kidney All-trans RA,[2],18.2 pmol
same,Kidney Retinol,[2],8.07 nmol
same,Kidney Retinyl esters,[2],0.88 nmol
same,"Liver 9-cis-4o-13,14-dh RA",[2],665 pmol
same,Liver All-trans RA,[2],239 pmol
same,Liver Retinol,[2],0.23 µmol
same,Liver Retinyl esters,[2],9.31 µmol
same,Kidney All-trans RA,[3],19.9 pmol
same,Kidney Retinol,[3],9.25 nmol
same,Kidney Retinyl esters,[3],0.82 nmol
same,"Liver 9-cis-4o-13,14-dh RA",[3],691 pmol
same,Liver All-trans RA,[3],231 pmol
same,Liver Retinol,[3],0.25 µmol
same,Liver Retinyl esters,[3],8.81 µmol
same,Kidney All-trans RA,[4],20.6 pmol
same,Kidney Retinol,[4],8.42 nmol
same,Kidney Retinyl esters,[4],0.71 nmol
same,"Liver 9-cis-4o-13,14-dh RA",[4],543 pmol
same,Liver All-trans RA,[4],252 pmol
same,Liver Retinol,[4],0.24 µmol
same,Liver Retinyl esters,[4],9.73 µmol
same,Kidney All-trans RA,[5],20.2 pmol
same,Kidney Retinol,[5],8.45 nmol
same,Kidney Retinyl esters,[5],0.73 nmol
same,"Liver 9-cis-4o-13,14-dh RA",[5],357 pmol
same,Liver All-trans RA,[5],332 pmol
same,Liver Retinol,[5],0.24 µmol
same,Liver Retinyl esters,[5],8.90 µmol
same,Kidney All-trans RA,[6],21.5 pmol
same,Kidney Retinol,[6],8.95 nmol
same,Kidney Retinyl esters,[6],0.74 nmol
same,"Liver 9-cis-4o-13,14-dh RA",[6],226 pmol
same,Liver All-trans RA,[6],296 pmol
same,Liver Retinol,[6],0.24 µmol
same,Liver Retinyl esters,[6],8.28 µmol
same,Kidney All-trans RA,[7],22.0 pmol
same,Kidney Retinol,[7],10.3 nmol
same,Kidney Retinyl esters,[7],0.75 nmol
same,"Liver 9-cis-4o-13,14-dh RA",[7],261 pmol
same,Liver All-trans RA,[7],289 pmol
same,Liver Retinol,[7],0.21 µmol
same,Liver Retinyl esters,[7],6.90 µmol
same,"Kidney all-trans RA amount, CED","females, CES 5%, total dose based",494 mg/kg bw

# Source: article PMC4138103 (PLoS ONE, 2014)
